Here are results for one compound from EP4759807A1, “PROTEOLYSIS TARGETING CHIMERA COMPOUND FOR DEGRADING IRAK4 AND USE THEREOF” (Shenzhen Zhongge Biological Technology Co., Ltd., priority 2023, dated 2025).

The structures appear in SMILES notation. Where two headings read alike, the source gives them in different places.

Data set [1] deals with T1, CYP2C9 (Homo sapiens, UniProt P11712).
T1 construct: 0.05 mg/mL liver microsomes (BioIVT, IHG) phosphate buffer solution; tissue BioIVT IHG; host or cells: human liver microsomes
T1 sequence (P11712 whole entry): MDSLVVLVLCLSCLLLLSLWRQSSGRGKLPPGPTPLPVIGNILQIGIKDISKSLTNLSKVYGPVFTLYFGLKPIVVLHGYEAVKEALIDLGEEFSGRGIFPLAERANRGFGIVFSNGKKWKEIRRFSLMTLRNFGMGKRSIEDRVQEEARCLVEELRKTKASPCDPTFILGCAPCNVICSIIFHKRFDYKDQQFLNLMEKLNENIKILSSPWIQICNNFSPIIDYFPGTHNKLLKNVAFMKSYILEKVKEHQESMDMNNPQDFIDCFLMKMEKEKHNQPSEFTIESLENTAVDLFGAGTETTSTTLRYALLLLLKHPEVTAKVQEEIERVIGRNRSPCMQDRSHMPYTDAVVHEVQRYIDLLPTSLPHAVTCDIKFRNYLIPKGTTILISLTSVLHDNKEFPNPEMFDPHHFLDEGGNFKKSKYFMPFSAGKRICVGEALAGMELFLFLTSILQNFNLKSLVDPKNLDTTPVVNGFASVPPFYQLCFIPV
In words: Inhibitory effect on human liver microsome CYP450 enzyme. Type of data set: in vitro ADME. As to conditions: human liver microsomes, substrate Diclofenac Sodium. The procedure: (§1) In this experiment, the compound, liver microsomes and different CYP isoform enzyme substrates were incubated in a 37°C water bath, the amount of substrate metabolites generated was measured, and the inhibitory effect of the compound of the present disclosure on CYP enzyme was evaluated based on the IC50 value.
(§2) i. The compound was diluted with DMSO (Aladdin, catalog number: D103273-500ml) to concentrations of 0, 0.02, 0.06, 0.2, 0.6, 2 and 6 mM. The positive reference inhibitors for each CYP isoform and their concentrations are shown in Table 4 Table 4 Positive reference inhibitors for CYP isoform enzymes and their concentrations
(§3) ii. Phosphate buffer (sigma: V900050-500G) was used to formulate the substrate solution for each CYP isoform enzyme. Table 5 The substrate and the concentration thereof for CYP isoform enzyme
(§4) iii. Sample incubation. 1 µL of each concentration of the compound and positive reference inhibitor for CYP isoform enzyme were taken and placed into a 96-deep well plate (A-gen: P-1.0-RD-96-S), and 169 µL of 0.05 mg/mL liver microsomes (BioIVT, IHG) phosphate buffer solution (using 0.2 mg/mL liver microsomes for CYP2C19) was added. After uniform mixing, the plate was placed in a 37°C water bath (Shanghai Jinghong Experimental Equipment Co., Ltd., DK-500) with shaking for pre-incubation for 15 min. 10 µL of substrate (adding 1 µL of substrate for CYP3A4-Testosterone) and 20 µL of 10 mM NADPH phosphate buffer solution (MCE, HYF003/CS-4998) were added. After uniform mixing, the plate was incubated in a water bath with shaking for the following time: CYP1A2: 20 min, CYP2C9: 10 min, CYP2C19: 10 min, CYP2D6: 10 min, CYP3A4-Testosterone: 10 min, CYP3A4-Midazolam: 5 min. 400 µL of glacial acetonitrile/methanol (v/v, 1:1) containing an internal standard (500 nM tolbutamide, 5 nM terfenadine) was added to terminate the reaction. After centrifugation at 4000 rpm at 4°C for 40 min, the supernatant was taken and diluted with pure water according to the response of the metabolite of the substrate, and then UPLC-MS/MS (Sciex, Q-Trap 4500) was used for detection to obtain the peak area. The C18 chromatographic column was Kinetex 2.6u C18 100A (50 mm*3 mm).
(§5) The inhibitory effect of the compound on each P450 enzyme in human liver microsomes was calculated as the percentage of reduced metabolite formation compared with the non-inhibitory control (i.e. blank DMSO). The IC50 value of the compound for each P450 enzyme in human liver microsomes was calculated with the logarithm of the remaining activity and the inhibitor concentration using Graphpad Prism software. The calculation equation was as follows: Peak area ratio = compound peak area / internal standard peak area [formula] [formula]
(§6) In Graphpad Prism software, the IC50 value was calculated using the standard four-parameter curve fitting algorithm.
(In general: Microsomes from liver hold many membrane-bound enzymes, among them those of drug oxidation.)

For data set [2], the target named is T2, CYP1A2 (Homo sapiens, UniProt P05177).
T2 construct: 0.05 mg/mL liver microsomes (BioIVT, IHG) phosphate buffer solution; tissue BioIVT IHG; host or cells: human liver microsomes
T2 sequence (P05177 1-516): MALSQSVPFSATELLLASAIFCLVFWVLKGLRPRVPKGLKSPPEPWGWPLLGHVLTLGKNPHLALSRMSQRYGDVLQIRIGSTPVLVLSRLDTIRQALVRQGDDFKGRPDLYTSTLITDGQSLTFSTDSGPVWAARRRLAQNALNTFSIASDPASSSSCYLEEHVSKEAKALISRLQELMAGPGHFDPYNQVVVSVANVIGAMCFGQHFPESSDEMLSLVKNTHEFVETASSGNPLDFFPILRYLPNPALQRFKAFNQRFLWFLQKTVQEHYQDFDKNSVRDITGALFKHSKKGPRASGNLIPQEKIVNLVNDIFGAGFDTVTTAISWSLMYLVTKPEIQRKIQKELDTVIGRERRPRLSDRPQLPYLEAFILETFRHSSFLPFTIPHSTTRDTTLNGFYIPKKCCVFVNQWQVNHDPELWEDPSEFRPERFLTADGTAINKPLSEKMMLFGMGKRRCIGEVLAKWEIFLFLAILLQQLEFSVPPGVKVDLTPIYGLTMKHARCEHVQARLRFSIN
The data set is described as above. Particulars: human liver microsomes, substrate Phenacetin. The data set is classed as in vitro ADME. How it is done: as §1, §2, §3, §4, §5, §6

Data set [3] concerns the target T3, CYP2C19 (Homo sapiens, UniProt P33261).
T3 construct: (using 0.2 mg/mL liver microsomes for CYP2C19); tissue BioIVT IHG; host or cells: human liver microsomes
The data set is described as above. Type of data set: in vitro ADME. Particulars: human liver microsomes, substrate Mephenytoin. How it is done: as §1, §2, §3, §4, §5, §6

Data set [4] concerns the target T4, CYP2D6 (Homo sapiens, UniProt P10635).
T4 construct: 0.05 mg/mL liver microsomes (BioIVT, IHG) phosphate buffer solution; tissue BioIVT IHG; host or cells: human liver microsomes
Described as above. Type of data set: in vitro ADME. Particulars: human liver microsomes, substrate Dextromethorphan. The procedure:
as §1, §2, §3, §4, §5, §6

The target of data set [5] is T5, CYP3A4 (Homo sapiens, UniProt P08684).
T5 construct: 0.05 mg/mL liver microsomes (BioIVT, IHG) phosphate buffer solution; tissue BioIVT IHG; host or cells: human liver microsomes
T5 sequence (P08684 whole entry): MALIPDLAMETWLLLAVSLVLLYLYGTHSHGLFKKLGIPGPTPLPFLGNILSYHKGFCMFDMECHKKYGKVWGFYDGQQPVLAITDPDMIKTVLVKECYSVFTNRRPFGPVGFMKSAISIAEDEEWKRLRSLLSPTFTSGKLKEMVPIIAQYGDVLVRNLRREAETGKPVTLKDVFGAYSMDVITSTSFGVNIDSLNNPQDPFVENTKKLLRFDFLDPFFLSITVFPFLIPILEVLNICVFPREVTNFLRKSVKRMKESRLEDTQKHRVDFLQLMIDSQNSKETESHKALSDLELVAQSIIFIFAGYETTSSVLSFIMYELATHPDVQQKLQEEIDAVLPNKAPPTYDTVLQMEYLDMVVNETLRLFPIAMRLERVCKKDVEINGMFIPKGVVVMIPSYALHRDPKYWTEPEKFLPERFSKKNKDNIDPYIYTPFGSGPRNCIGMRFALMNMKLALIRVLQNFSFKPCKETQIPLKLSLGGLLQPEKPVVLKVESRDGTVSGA
The description is as above. Type of data set: in vitro ADME. Particulars: liver microsomes. How it is done: as §1, §2, §3, §4, §5, §6

Data set [6] concerns the target T6, hERG ion channel (Homo sapiens, UniProt Q12809).
T6 construct: host or cells: HEK293
In words: Inhibitory effect on hERG ion channels (manual patch clamp). Type of data set: cell-based. As to conditions: HEK293 cells stably expressing hERG channels, read-out: hERG (IC50, manupatch). The procedure: In this experiment, the inhibitory effect of the compound on the hERG ion channel was detected by a manual patch clamp electrophysiological method, and the cardiac safety was evaluated based on the single concentration inhibition rate or IC50 of the compound.
The cells used in this experiment were HEK293 cell lines transfected with hERG cDNA and stably expressing hERG channels (#60187, provided by BPS, P3-P23 generations were used for experimental research). The cells was cultured in a medium containing the following components: MEM medium, 10% (v/v) inactivated fetal bovine serum, 1 mM sodium pyruvate, 500 µg geneticin, 0.1 mM non-essential amino acids, 100 U penicillin-streptomycin. HEK293 hERG cells were grown in a culture flask containing the above culture solution and cultured in an incubator at 37°C and 5% CO2. […]
A manual patch clamp system (HEKA EPC-10 signal amplifier and digital conversion system, purchased from HEKA Electronics, Germany) was used to record whole-cell currents in electrophysiological experiments. […] After the hERG current recorded in the above steps reached stabilization under the continuous perfusion of extracellular solution in the recording chamber, different concentrations of the compound to be tested could be perfused until the inhibitory effect of the drug on the hERG current reached a stable state. […]
(The hERG channel carries a current that helps repolarise heart muscle cells.)

T4 sequence (P10635 whole entry): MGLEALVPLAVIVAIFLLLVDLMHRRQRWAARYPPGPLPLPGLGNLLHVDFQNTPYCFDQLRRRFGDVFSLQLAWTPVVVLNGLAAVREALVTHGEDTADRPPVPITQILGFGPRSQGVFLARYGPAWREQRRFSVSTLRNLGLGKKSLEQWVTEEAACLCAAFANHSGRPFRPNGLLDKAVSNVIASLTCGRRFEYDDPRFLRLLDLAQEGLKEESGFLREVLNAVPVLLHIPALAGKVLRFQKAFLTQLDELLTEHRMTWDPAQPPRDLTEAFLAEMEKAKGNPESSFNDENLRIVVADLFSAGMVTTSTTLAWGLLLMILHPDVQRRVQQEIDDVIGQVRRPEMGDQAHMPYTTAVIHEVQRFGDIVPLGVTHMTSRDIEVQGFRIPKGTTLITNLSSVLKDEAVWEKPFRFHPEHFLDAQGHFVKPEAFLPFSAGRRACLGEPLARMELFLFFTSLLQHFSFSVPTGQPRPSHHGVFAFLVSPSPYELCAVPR
T3 sequence (P33261 whole entry): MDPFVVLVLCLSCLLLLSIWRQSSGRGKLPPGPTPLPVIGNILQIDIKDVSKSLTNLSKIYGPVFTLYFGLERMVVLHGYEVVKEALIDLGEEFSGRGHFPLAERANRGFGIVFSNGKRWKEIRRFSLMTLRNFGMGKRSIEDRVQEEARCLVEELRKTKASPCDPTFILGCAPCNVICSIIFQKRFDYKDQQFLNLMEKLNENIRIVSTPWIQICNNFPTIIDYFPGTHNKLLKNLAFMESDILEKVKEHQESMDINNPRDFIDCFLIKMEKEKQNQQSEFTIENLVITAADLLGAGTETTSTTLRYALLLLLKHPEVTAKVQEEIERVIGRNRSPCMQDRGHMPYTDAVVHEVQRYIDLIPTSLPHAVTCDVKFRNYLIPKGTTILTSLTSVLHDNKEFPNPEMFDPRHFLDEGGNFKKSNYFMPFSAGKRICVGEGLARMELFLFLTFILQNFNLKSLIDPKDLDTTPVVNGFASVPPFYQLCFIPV
T6 sequence (Q12809 whole entry): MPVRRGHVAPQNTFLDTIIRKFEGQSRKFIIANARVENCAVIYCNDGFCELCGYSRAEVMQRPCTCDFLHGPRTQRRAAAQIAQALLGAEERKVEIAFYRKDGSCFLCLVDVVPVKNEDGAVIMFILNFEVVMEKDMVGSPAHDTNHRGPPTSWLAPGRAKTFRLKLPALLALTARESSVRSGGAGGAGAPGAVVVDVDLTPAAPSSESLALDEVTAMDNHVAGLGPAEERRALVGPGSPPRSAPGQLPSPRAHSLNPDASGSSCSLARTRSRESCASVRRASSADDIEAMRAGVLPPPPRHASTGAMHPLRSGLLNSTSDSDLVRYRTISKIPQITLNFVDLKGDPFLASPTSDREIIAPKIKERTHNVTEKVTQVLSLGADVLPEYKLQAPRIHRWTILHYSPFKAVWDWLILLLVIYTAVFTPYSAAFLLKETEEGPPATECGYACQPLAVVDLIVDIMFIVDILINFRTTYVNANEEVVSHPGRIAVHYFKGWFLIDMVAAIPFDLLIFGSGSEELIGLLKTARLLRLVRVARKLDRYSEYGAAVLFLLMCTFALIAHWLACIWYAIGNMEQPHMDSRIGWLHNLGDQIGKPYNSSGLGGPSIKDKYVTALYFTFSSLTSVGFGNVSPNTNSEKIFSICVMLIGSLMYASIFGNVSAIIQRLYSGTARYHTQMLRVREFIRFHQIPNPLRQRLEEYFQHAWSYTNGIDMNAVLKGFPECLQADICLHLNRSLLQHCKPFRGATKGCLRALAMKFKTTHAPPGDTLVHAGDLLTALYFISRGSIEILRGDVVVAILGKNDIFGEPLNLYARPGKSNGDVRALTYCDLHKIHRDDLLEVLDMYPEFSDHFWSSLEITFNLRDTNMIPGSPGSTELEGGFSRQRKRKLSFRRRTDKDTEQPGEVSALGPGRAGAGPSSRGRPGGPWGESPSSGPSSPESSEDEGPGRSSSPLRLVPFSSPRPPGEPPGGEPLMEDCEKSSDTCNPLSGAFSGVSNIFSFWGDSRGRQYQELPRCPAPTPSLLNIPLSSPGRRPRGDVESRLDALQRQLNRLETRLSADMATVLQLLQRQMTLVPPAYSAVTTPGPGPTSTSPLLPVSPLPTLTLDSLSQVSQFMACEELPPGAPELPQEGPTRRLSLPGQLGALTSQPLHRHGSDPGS

`Cn1c(=O)n(C2CCC(=O)NC2=O)c2cccc(C#CCOC3CCN(C[C@H]4CC[C@H](n5cc(NC(=O)c6cnn7ccc(N8C[C@H]9C[C@@H]8CO9)nc67)c(C(F)F)n5)CC4)CC3)c21` (stereo partly shown) [KT474, reference compound]: the IC50 – broadly, the concentration that inhibits the measured activity by half – in data set [1] was 9.61 µM; in data set [2] it was greater than 30 µM; in data set [3], 3.81 µM; in data set [4], greater than 30 µM; in data set [5] (substrate Midazolam, read-out: IC50 (µM) CYP3A4-M), 15.1 µM; in data set [5] (substrate Testosterone, read-out: IC50 (µM) CYP3A4-T), greater than 30 µM. Also, the IC50 in data set [6] came out at 2.65 µM.
